Laboratory results taken from patent publication US20250212681A1, “Light-Emitting Device” (Semiconductor Energy Laboratory Co., Ltd., priority 2023, published 2025).

Test: Solubility test of PrdP2Phen by LC-MS analysis
Format: physicochemical
Settings: 1 mg in 1 mL of water, ultrasonic waves 5 minutes, filtrate analysed by LC-MS; one atmosphere, room temperature
Protocol: Next, a solubility test of PrdP2Phen was performed. Note that the solubility test was conducted at a pressure of one atmosphere at room temperature (RT).
In the LC-MS analysis, liquid chromatography (LC) separation was carried out with ACQUITY UPLC (manufactured by Waters Corporation), and MS analysis (mass spectrometry) was carried out with Xevo G2 Tof MS (manufactured by Waters Corporation). Acquity UPLC BEH C8 (2.1×100 mm, 1.7 μm) was used as a column for the LC separation. Acetonitrile was used for Mobile Phase A and a 0.1% aqueous solution of formic acid was used for Mobile Phase B. The injection amount of the sample was 5.0 μL. Note that in the analysis, the wavelength of a photodiode array detector was set to 263 nm±1 nm.
In a 5-mL sample bottle, 1 mg of PrdP2Phen was put and 1 mL of water was added thereto. This mixture was irradiated with ultrasonic waves for 5 minutes. This mixture was filtered through a membrane filter to remove the solid, and the resulting filtrate was diluted by five times with acetonitrile. The obtained solution was subjected to LC-MS analysis.

c1cc(-c2ccc(N3CCCC3)cc2)c2ccc3c(-c4ccc(N5CCCC5)cc4)ccnc3c2n1 [PrdP2Phen, 4,7-bis[4-(1-pyrrolidinyl)phenyl]-1,10-phenanthroline]
solubility in water: extremely low solubility in water
